# Measurements taken from patent publication US20240148821A1, “PHARMACEUTICAL USE OF CYCLIC PEPTIDE COMPOUND” (CHUGAI SEIYAKU KABUSHIKI KAISHA, priority 2021, published 2024).
# Numbered stars: 1 amine (or outer) side, 2 acyl side, 3 side chain; on linkers, the order of the positions; unused ones are H or OH. Bridge positions count the residues as written; N and C are the ends. Square brackets hold non-standard residues; d marks the D form. Peptide text beside a SMILES is read from it. * marks the point of attachment. hPhe(3-Cl-4-CF3) = N[C@@H](CCc1ccc(C(F)(F)F)c(Cl)c1)C(=O)O; NMePhe(2-CF3) = CN[C@@H](Cc1ccccc1C(F)(F)F)C(=O)O; NMeAla(4-thiazolyl) = CN[C@@H](Cc1cscn1)C(=O)O; NMePhe(4-Cl) = CN[C@@H](Cc1ccc(Cl)cc1)C(=O)O; NMePhe(3-Me) = CN[C@@H](Cc1cccc(C)c1)C(=O)O; NMePhe(4-Me) = CN[C@@H](Cc1ccc(C)cc1)C(=O)O; NMePhe(4-F) = CN[C@@H](Cc1ccc(F)cc1)C(=O)O; NMeMet(O2) = CN[C@@H](CCS(C)(=O)=O)C(=O)O; NMedβ3hAla = C[C@H](CC(=O)[*:2])N(C)[*:1]; NMeGly(cPent) = CN[C@H](C(=O)O)C1CCCC1; Phe(3-I) = N[C@@H](Cc1cccc(I)c1)C(=O)O; NMeCha = CN[C@@H](CC1CCCCC1)C(=O)O; NMeGly(cPr) = CN[C@H](C(=O)O)C1CC1; NMeAhp(2) = CCCCC[C@H](NC)C(=O)O; NMeChg = CN[C@H](C(=O)O)C1CCCCC1; NMeF = CN[C@@H](Cc1ccccc1)C(=O)O; Cha = N[C@@H](CC1CCCCC1)C(=O)O; NMeD = CN[C@@H](CC(=O)O)C(=O)O; NMeL = CN[C@@H](CC(C)C)C(=O)O; NMeV = CN[C@H](C(=O)O)C(C)C; d(β3hA) = C[C@@H](N)CC(=O)O; Iva = CC[C@](C)(N)C(=O)O; NMeA = CN[C@@H](C)C(=O)O; NMeAib = CNC(C)(C)C(=O)O; Nle = CCCC[C@H](N)C(=O)O; Piperidide = C1CCN(*)CC1; dNMeA = CN[C@H](C)C(=O)O; Ac5c = NC1(C(=O)O)CCCC1; Aze = O=C(O)[C@@H]1CCN1; NcPrGly = O=C(O)CNC1CC1; Nleu = CC(C)CNCC(=O)O; Sar = CNCC(=O)O
# System: Human pancreatic cancer cell line AsPC-1 (G12D mutation Kras)
# Test: AsPC-1 cell growth inhibition (AsPC-1 CGI)
# Type: cell-based
# Conditions: read-out: AsPC-1 cell growth inhibition, 50% growth inhibitory concentration (IC50 value); 96 hours, CellTiter-Glo, values classified in ranges
# Experimental: Test compounds were serially dilated with dimethyl sulfoxide, and 200 nL was then dispensed to a U-bottom 96-well plate using Labcyte Echo. […] The cell suspension was dispensed to a. plate containing a test compound at 100 μL per well and incubated at 37° C. in a 5% carbon dioxide gas incubator. 96 hours later, 80 μL of CellTiter-Glo (Promega) was added to each well and fluorescence was measured.
row,SMILES,IC50 [nM]
1,CC[C@H](C)[C@@H]1NC(=O)[C@H](CC(C)C)N(C)C(=O)C[C@@H](C)NC(=O)[C@H](C(C)C)N(C)C(=O)C2(CCCC2)NC(=O)[C@@H]2CCCN2C(=O)[C@H](CCc2ccc(C(F)(F)F)c(Cl)c2)NC(=O)CN(C2CC2)C(=O)[C@H](CC2CCCCC2)N(C)C(=O)CN(C)C(=O)CN(C)C1=O [Compound 204] (cyclo([Ac5c][NMeV][d(β3hA)][NMeL]I[Sar][Sar][NMeCha][NcPrGly][hPhe(3-Cl-4-CF3)]P)),> 500
2,CC[C@H](C)[C@@H]1NC(=O)[C@H](CC(C)C)N(C)C(=O)C[C@@H](C)NC(=O)[C@H](C(C)C)N(C)C(=O)[C@](C)(CC)NC(=O)[C@@H]2CCCN2C(=O)[C@H](CCc2ccc(C(F)(F)F)c(Cl)c2)NC(=O)CN(C)C(=O)[C@H](CC2CCCCC2)N(C)C(=O)CN(C)C(=O)CN(C)C1=O [Compound 149] (cyclo(I[Sar][Sar][NMeCha][Sar][hPhe(3-Cl-4-CF3)]P[Iva][NMeV][d(β3hA)][NMeL])),> 500
3,CC(C)C[C@H]1C(=O)N[C@@H]([C@@H](C)O)C(=O)N(C)CC(=O)N(C)CC(=O)N(C)[C@@H](CC2CCCCC2)C(=O)N(C)CC(=O)N[C@@H](CCc2ccc(C(F)(F)F)c(Cl)c2)C(=O)N2CCC[C@H]2C(=O)NC2(CCCC2)C(=O)N(C)[C@@H](C2CCCCC2)C(=O)N(C)[C@H](C(=O)N2CCCCC2)CC(=O)N1C [Compound 603] ([NMeL]T[Sar][Sar][NMeCha][Sar][hPhe(3-Cl-4-CF3)]P[Ac5c][NMeChg][NMeD]-Piperidide; lactam N-11),> 500
4,CC[C@H](C)[C@@H]1NC(=O)[C@H](CC(C)C)N(C)C(=O)C[C@@H](C(=O)N2CCCCC2)N(C)C(=O)[C@H](C(C)C)N(C)C(=O)C2(CCCC2)NC(=O)[C@@H]2CCCN2C(=O)[C@H](CCc2ccc(C(F)(F)F)c(Cl)c2)NC(=O)CN(C)C(=O)[C@H](CCS(C)(=O)=O)N(C)C(=O)[C@@H]2CCN2C(=O)[C@H](C)N(C)C1=O [Compound 235] ([NMeL]I[NMeA][Aze][NMeMet(O2)][Sar][hPhe(3-Cl-4-CF3)]P[Ac5c][NMeV][NMeD]-Piperidide; lactam N-11),> 500
5,CC[C@H](C)[C@@H]1NC(=O)[C@H](C)N(C)C(=O)C[C@@H](C)N(C)C(=O)[C@H](CC(C)C)NC(=O)C(C)(C)N(C)C(=O)[C@H](CC(C)C)NC(=O)[C@H](CCc2ccc(C(F)(F)F)c(Cl)c2)NC(=O)CN(C)C(=O)[C@H](Cc2ccc(C)cc2)N(C)C(=O)[C@@H]2CCN2C(=O)CN(C)C1=O [Compound 1377] (cyclo([Aze][NMePhe(4-Me)][Sar][hPhe(3-Cl-4-CF3)]L[NMeAib]L[NMedβ3hAla][NMeA]I[Sar])),> 500
6,CC(C)C[C@H]1C(=O)N[C@@H](CC2CCCCC2)C(=O)N(C)CC(=O)N(C)CC(=O)N(C)[C@@H](CC2CCCCC2)C(=O)N(C)CC(=O)N[C@@H](CCc2ccc(C(F)(F)F)c(Cl)c2)C(=O)N2CCC[C@H]2C(=O)NC2(CCCC2)C(=O)N(C)[C@@H](C(C)C)C(=O)N(C)[C@H](C(=O)N2CCCCC2)CC(=O)N1C [Compound 986] ([NMeL][Cha][Sar][Sar][NMeCha][Sar][hPhe(3-Cl-4-CF3)]P[Ac5c][NMeV][NMeD]-Piperidide; lactam N-11),> 500
7,CCCC[C@@H]1NC(=O)[C@H](CC(C)C)N(C)C(=O)C[C@@H](C(=O)N2CCCCC2)N(C)C(=O)[C@H](C2CCCCC2)N(C)C(=O)C2(CCCC2)NC(=O)[C@@H]2CCCN2C(=O)[C@H](CCc2ccc(C(F)(F)F)c(Cl)c2)NC(=O)CN(C)C(=O)[C@H](CC2CCCCC2)N(C)C(=O)CN(C)C(=O)CN(C)C1=O [Compound 1723] ([NMeL][Nle][Sar][Sar][NMeCha][Sar][hPhe(3-Cl-4-CF3)]P[Ac5c][NMeChg][NMeD]-Piperidide; lactam N-11),> 500
8,CC[C@H](C)[C@@H]1NC(=O)[C@H](C)N(C)C(=O)C[C@@H](C(=O)N2CCCCC2)N(C)C(=O)[C@H](C(C)C)N(C)C(=O)C2(CCCC2)NC(=O)[C@H](Cc2ccc(F)cc2)N(C)C(=O)[C@H](CCc2ccc(C(F)(F)F)c(Cl)c2)NC(=O)CN(C)C(=O)[C@H](CC2CCCCC2)N(C)C(=O)CN(C)C(=O)CN(C)C1=O [Compound 821] ([NMeA]I[Sar][Sar][NMeCha][Sar][hPhe(3-Cl-4-CF3)][NMePhe(4-F)][Ac5c][NMeV][NMeD]-Piperidide; lactam N-11),> 500
9,CC[C@H](C)[C@@H]1NC(=O)[C@H](C)N(C)C(=O)C[C@@H](C)NC(=O)[C@H](C2CCCC2)N(C)C(=O)C2(CCCC2)NC(=O)[C@@H]2CCCN2C(=O)[C@H](CCc2ccc(C(F)(F)F)c(Cl)c2)NC(=O)[C@@H](C)N(C)C(=O)[C@H](Cc2cccc(C)c2)N(C)C(=O)[C@@H]2CCN2C(=O)[C@H](C)N(C)C1=O [Compound 117] (cyclo([Ac5c][NMeGly(cPent)][d(β3hA)][NMeA]I[NMeA][Aze][NMePhe(3-Me)][dNMeA][hPhe(3-Cl-4-CF3)]P)),> 500
10,CC[C@H](C)[C@@H]1NC(=O)[C@H](CC(C)C)N(C)C(=O)C[C@@H](C)NC(=O)[C@H](C(C)C)N(C)C(=O)C2(CCCC2)NC(=O)[C@@H]2CCCN2C(=O)[C@H](CCc2ccc(C(F)(F)F)c(Cl)c2)NC(=O)CN(C)C(=O)[C@H](Cc2ccccc2C(F)(F)F)N(C)C(=O)CN(C)C(=O)CN(C)C1=O [Compound 1613] (cyclo([Ac5c][NMeV][d(β3hA)][NMeL]I[Sar][Sar][NMePhe(2-CF3)][Sar][hPhe(3-Cl-4-CF3)]P)),> 500
11,CC[C@H](C)[C@@H]1NC(=O)[C@H](CC(C)C)N(C)C(=O)C[C@@H](C)NC(=O)[C@H](C2CC2)N(C)C(=O)C2(CCCC2)NC(=O)[C@@H]2CCCN2C(=O)[C@H](CCc2ccc(C(F)(F)F)c(Cl)c2)NC(=O)CN(C)C(=O)[C@H](CC2CCCCC2)N(C)C(=O)CN(C)C(=O)CN(C)C1=O [Compound 14] (cyclo([Ac5c][NMeGly(cPr)][d(β3hA)][NMeL]I[Sar][Sar][NMeCha][Sar][hPhe(3-Cl-4-CF3)]P)),> 500
12,CC[C@H](C)[C@@H]1NC(=O)[C@H](CC(C)C)N(C)C(=O)C[C@@H](C)NC(=O)[C@H](C(C)C)N(C)C(=O)C2(CCCC2)NC(=O)[C@@H]2CCCN2C(=O)[C@H](CCc2ccc(C(F)(F)F)c(Cl)c2)NC(=O)CN(C)C(=O)[C@H](CC2CCCCC2)N(C)C(=O)CN(C)C(=O)CN(CC(C)C)C1=O [Compound 970] (cyclo([Ac5c][NMeV][d(β3hA)][NMeL]I[Nleu][Sar][NMeCha][Sar][hPhe(3-Cl-4-CF3)]P)),> 500
13,CC[C@H](C)[C@@H]1NC(=O)[C@H](CC(C)C)N(C)C(=O)C[C@@H](C(=O)N(C)C)N(C)C(=O)[C@H](C2CCCC2)N(C)C(=O)C2(CCCC2)NC(=O)[C@H](Cc2ccc(C)cc2)N(C)C(=O)[C@H](CCc2ccc(C(F)(F)F)c(Cl)c2)NC(=O)CN(C)C(=O)[C@H](CC2CCCCC2)N(C)C(=O)[C@@H]2CCN2C(=O)[C@H](C)N(C)C1=O [Compound 908] ([NMeL]I[NMeA][Aze][NMeCha][Sar][hPhe(3-Cl-4-CF3)][NMePhe(4-Me)][Ac5c][NMeGly(cPent)][NMeD]-NMe2; lactam N-11),> 500
14,CC[C@H](C)[C@@H]1NC(=O)[C@H](CC(C)C)N(C)C(=O)C[C@@H](C)N(C)C(=O)[C@H](CC(C)C)NC(=O)C(C)(C)N(C)C(=O)[C@H](CC(C)C)NC(=O)[C@H](CCc2ccc(C(F)(F)F)c(Cl)c2)NC(=O)CN(C)C(=O)[C@H](Cc2ccc(C)cc2)N(C)C(=O)[C@@H]2CCN2C(=O)CN(C)C1=O [Compound 1386] (cyclo([Aze][NMePhe(4-Me)][Sar][hPhe(3-Cl-4-CF3)]L[NMeAib]L[NMedβ3hAla][NMeL]I[Sar])),> 500
15,CC[C@H](C)[C@@H]1NC(=O)[C@H](C)N(C)C(=O)C[C@@H](C)NC(=O)[C@H](C(C)C)N(C)C(=O)C2(CCCC2)NC(=O)[C@@H]2CCCN2C(=O)[C@H](CCc2ccc(C(F)(F)F)c(Cl)c2)NC(=O)CN(C)C(=O)[C@H](Cc2ccc(F)cc2)N(C)C(=O)[C@@H]2CCCN2C(=O)CN(C)C1=O [Compound 1732] (cyclo([Ac5c][NMeV][d(β3hA)][NMeA]I[Sar]P[NMePhe(4-F)][Sar][hPhe(3-Cl-4-CF3)]P)),> 500
16,CCCC[C@@H]1NC(=O)[C@H](Cc2cccc(I)c2)NC(=O)CN(C)C(=O)[C@H](Cc2ccc(Cl)cc2)N(C)C(=O)CN(C)C(=O)CN(C)C(=O)[C@H]([C@@H](C)CC)NC(=O)[C@H](CC(C)C)N(C)C(=O)C[C@@H](C(=O)N2CCCCC2)N(C)C(=O)[C@H](CC(C)C)NC(=O)[C@H](Cc2ccccc2C(F)(F)F)N(C)C1=O [Compound 813] ([NMeL]I[Sar][Sar][NMePhe(4-Cl)][Sar][Phe(3-I)][Nle][NMePhe(2-CF3)]L[NMeD]-Piperidide; lactam N-11),> 500
17,CC[C@H](C)[C@@H]1NC(=O)[C@H](CC(C)C)N(C)C(=O)C[C@@H](C(=O)N(C)C)N(C)C(=O)[C@H](C2CCCC2)N(C)C(=O)[C@H](C)NC(=O)[C@H](Cc2cscn2)N(C)C(=O)[C@H](CCc2ccc(C(F)(F)F)c(Cl)c2)NC(=O)CN(C)C(=O)[C@H](CC2CCCCC2)N(C)C(=O)[C@@H]2CCN2C(=O)[C@H](C)N(C)C1=O [Compound 805] ([NMeL]I[NMeA][Aze][NMeCha][Sar][hPhe(3-Cl-4-CF3)][NMeAla(4-thiazolyl)]A[NMeGly(cPent)][NMeD]-NMe2; lactam N-11),> 500
18,CCCCC[C@H]1C(=O)N(C)[C@H](C(=O)N2CCCCC2)CC(=O)N(C)[C@@H](CC(C)C)C(=O)N[C@@H]([C@@H](C)CC)C(=O)N(C)CC(=O)N(C)CC(=O)N(C)[C@@H](CC2CCCCC2)C(=O)N(C)CC(=O)N[C@@H](CCc2ccc(C(F)(F)F)c(Cl)c2)C(=O)N2CCC[C@H]2C(=O)NC2(CCCC2)C(=O)N1C [Compound 1719] ([NMeL]I[Sar][Sar][NMeCha][Sar][hPhe(3-Cl-4-CF3)]P[Ac5c][NMeAhp(2)][NMeD]-Piperidide; lactam N-11),> 500
19,CC[C@H](C)[C@@H]1NC(=O)[C@H](C)N(C)C(=O)C[C@@H](C(=O)N2CCCCC2)N(C)C(=O)[C@H](C(C)C)N(C)C(=O)C2(CCCC2)NC(=O)[C@@H]2CCCN2C(=O)[C@H](CCc2ccc(C(F)(F)F)c(Cl)c2)NC(=O)[C@@H](C)N(C)C(=O)[C@H](Cc2ccccc2)N(C)C(=O)[C@@H]2CCCN2C(=O)CN(C)C1=O [Compound 1806] ([NMeA]I[Sar]P[NMeF][dNMeA][hPhe(3-Cl-4-CF3)]P[Ac5c][NMeV][NMeD]-Piperidide; lactam N-11),> 500
